{"source": "paper PMC7321319", "about": "“Comparative Molecular Transporter Properties of Cyclic Peptides Containing Tryptophan and Arginine Residues Formed through Disulfide Cyclization” (Molecules, 2020)", "system": "LLC-PK1, CCRF-CEM, CRL-1739, MDA-MB-231 and SKOV-3 cell lines", "experiment": "MTS cell viability assay, statements over the whole cell line panel", "type": "cell-based", "details": "Dox 5 µM, 24 and 72 h, 37 °C, n = 3", "protocol": "To evaluate the cytotoxicity of synthesized linear (C(WR)xC) and cyclic [C(WR)xC] […] Doxorubicin (Dox, 5 µM) was used as a positive control.\nThe in vitro cytotoxicity of the peptides was evaluated using the human leukemia carcinoma cell line (CCRF-CEM), normal kidney cell line (LLC-PK1), gastric adenocarcinoma (CRL-1739), ovarian (SKOV-3), and breast carcinoma (MDA-MB-231) cell lines to determine the toxicity of the peptides according to the previously reported procedure [17]. CCRF-CEM cells were seeded at 50,000 cells in 0.1 mL per well in 96-well plates. Other cells were seeded at 5,000 cells in 0.1 mL per well in 96-well plates. All cell lines were seeded in RPMI-1640 medium (pH 7.4) containing FBS (10%), 24 h prior to the experiment. […] This generates formazan crystals which are soluble in cell culture medium and can be measured at 490 nm. Cell viability was then determined by measuring the fluorescence intensity at 490 nm using a SpectraMaxM2 microplate spectrophotometer (Molecular Devices, San Jose, CA, USA). The percentage of cell survival was calculated as [(OD value of cells treated with the test mixture of compounds)−(OD value of culture medium)]/[(OD value of control cells) − (OD value of culture medium)] × 100%."}
{"smiles": "COc1cccc2c1C(=O)c1c(O)c3c(c(O)c1C2=O)C[C@@](O)(C(=O)CO)C[C@@H]3O[C@H]1C[C@H](N)[C@H](O)[C@H](C)O1", "note": "[Dox, Doxorubicin]", "values": [{"measurement": "cytotoxicity (percentage of cell survival), positive control", "value": "cytotoxic even at 5 µM"}]}
